IC50 and viability, T/C data for 5 molecules are collected here from PubChem BioAssay AID1919013 (Molecular Pharmacology Branch, DTP, NCI, 2023).

This assay concerns LG0703-F498-PDC complex spheroid growth. As to the kind of experiment: Anticancer human tumor LG0703-F498-PDC patient-derived lung adenocarcinoma cell line growth inhibition [AhR]. The conditions noted are these: for viability, T/C: stronger effect = lower value. A digest of the protocol:
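Spheroids combined tumor cells with HUVEC endothelial cells and human MSCs as stroma. AhR antagonists were paired with standard or investigational drugs, each dosed in half-log steps down from near clinical Cmax, or from 10 microM where Cmax was unknown.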

Setting [1] is: curve of first compound, second compound 0.1 µM.
Where [2] appears, read: curve of first compound, second compound 0.316 µM.
Setting [3] is: curve of first compound, second compound 1 µM.
The mark [4] stands for this setting: curve of first compound, second compound 3.16 µM.
Setting [5] is: curve of first compound, second compound 10 µM.
The mark [6] stands for this setting: second compound 0.1 µM, first compound 0.0316 µM.
Where [7] appears, read: second compound 0.1 µM, first compound 0.1 µM.
The mark [8] stands for this setting: second compound 0.1 µM, first compound 0.316 µM.
The mark [9] stands for this setting: second compound 0.1 µM, first compound 1 µM.
[10] abbreviates: second compound 0.1 µM, first compound 3.16 µM.
Where [11] appears, read: second compound 0.1 µM, first compound 10 µM.
Setting [12] is: second compound 0.316 µM, first compound 0.0316 µM.
Setting [13] is: second compound 0.316 µM, first compound 0.1 µM.
Setting [14] is: second compound 0.316 µM, first compound 0.316 µM.
The mark [15] stands for this setting: second compound 0.316 µM, first compound 1 µM.
[16] abbreviates: second compound 0.316 µM, first compound 3.16 µM.
Setting [17] is: second compound 0.316 µM, first compound 10 µM.
Where [18] appears, read: second compound 1 µM, first compound 0.0316 µM.
[19] abbreviates: second compound 1 µM, first compound 0.1 µM.
Where [20] appears, read: second compound 1 µM, first compound 0.316 µM.
The mark [21] stands for this setting: second compound 1 µM, first compound 1 µM.
Where [22] appears, read: second compound 1 µM, first compound 3.16 µM.
[23] abbreviates: second compound 1 µM, first compound 10 µM.
Where [24] appears, read: second compound 3.16 µM, first compound 0.0316 µM.
Setting [25] is: second compound 3.16 µM, first compound 0.1 µM.
The mark [26] stands for this setting: second compound 3.16 µM, first compound 0.316 µM.
Setting [27] is: second compound 3.16 µM, first compound 1 µM.
Setting [28] is: second compound 3.16 µM, first compound 3.16 µM.
Where [29] appears, read: second compound 3.16 µM, first compound 10 µM.
The mark [30] stands for this setting: second compound 10 µM, first compound 0.0316 µM.
[31] abbreviates: second compound 10 µM, first compound 0.1 µM.
The mark [32] stands for this setting: second compound 10 µM, first compound 0.316 µM.
Where [33] appears, read: second compound 10 µM, first compound 1 µM.
The mark [34] stands for this setting: second compound 10 µM, first compound 3.16 µM.
[35] abbreviates: second compound 10 µM, first compound 10 µM.

“And” between values parts separate entries of the source, which are not always exact repeats. Equal values may be shown once.
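Note: luminescence taken as a proxy for viable cell amount.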
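Throughout, for viability, T/C: percent of DMSO vehicle control where 100% means growth equal to vehicle.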

With `Nc1ncn(C2CC(O)C(CO)S2)c(=O)n1` (centres undefined) + Cc1cncc(-c2nc(NCCc3c[nH]c4ccccc34)c3ncn(C(C)C)c3n2)c1, the IC50 is more than 0.3 µM under setting [1]; more than 0.3 µM under setting [2]; more than 0.3 µM under setting [3]; less than 0.000949 µM under setting [4]; less than 0.000949 µM under setting [5]. Also, the viability, T/C is 107% (second compound 0.1 µM, first compound 0.000949 µM); 109% (second compound 0.1 µM, first compound 0.003 µM); 91.9% (second compound 0.1 µM, first compound 0.00949 µM); 98.4% (second compound 0.1 µM, first compound 0.03 µM); 104% (second compound 0.1 µM, first compound 0.0949 µM); 105% (second compound 0.1 µM, first compound 0.3 µM). The viability, T/C reads like this: (second compound 0.316 µM, first compound 0.000949 µM) 117%; (second compound 0.316 µM, first compound 0.003 µM) 107%; (second compound 0.316 µM, first compound 0.00949 µM) 108%; (second compound 0.316 µM, first compound 0.03 µM) 115%; (second compound 0.316 µM, first compound 0.0949 µM) 109%; (second compound 0.316 µM, first compound 0.3 µM) 99.1%. The viability, T/C was 87.3% (second compound 1 µM, first compound 0.000949 µM); 89.1% (second compound 1 µM, first compound 0.003 µM); 78.2% (second compound 1 µM, first compound 0.00949 µM); 86.3% (second compound 1 µM, first compound 0.03 µM); 94.4% (second compound 1 µM, first compound 0.0949 µM); 103% (second compound 1 µM, first compound 0.3 µM). For the same molecule, the viability, T/C was 3.25% (second compound 3.16 µM, first compound 0.000949 µM); 3.89% (second compound 3.16 µM, first compound 0.003 µM); 4.63% (second compound 3.16 µM, first compound 0.00949 µM); 5.24% (second compound 3.16 µM, first compound 0.03 µM); 2.89% (second compound 3.16 µM, first compound 0.0949 µM); 4.14% (second compound 3.16 µM, first compound 0.3 µM). For the same molecule, the viability, T/C was 1.24% (second compound 10 µM, first compound 0.000949 µM); 0.8% (second compound 10 µM, first compound 0.003 µM); 1.81% (second compound 10 µM, first compound 0.00949 µM); 1.01% (second compound 10 µM, first compound 0.03 µM); 1.6% (second compound 10 µM, first compound 0.0949 µM); 1.59% (second compound 10 µM, first compound 0.3 µM).

On to `COc1cccc2c1C(=O)c1c(O)c3c(c(O)c1C2=O)CC(O)(C(=O)CO)CC3OC1CC(N)C(O)C(C)O1` (centres undefined), for which the viability, T/C reads like this: (compound 0.0316 µM) 88% and 108% (2×); (compound 0.1 µM) 82.8% and 79.7% and 87.9%; (compound 0.316 µM) 65.5% and 75.9% and 69.5%; (compound 1 µM) 40.7% and 49.1% and 47.5%; (compound 3.16 µM) 9.35% and 15.7% and 20.4%; (compound 10 µM) 0.71% and 0.83% and 1.09%. Further, for the setting “curve of compound”, the IC50 is 0.628 µM and 0.828 µM and 0.812 µM.

`CC1(C)CCC(CN2CCN(c3ccc(C(=O)NS(=O)(=O)c4ccc(NCC5CCOCC5)c([N+](=O)[O-])c4)c(Oc4cnc5[nH]ccc5c4)c3)CC2)=C(c2ccc(Cl)cc2)C1` + Cc1ccccc1N=Nc1ccc(NC(=O)c2ccnn2C)c(C)c1: the 50% inhibitory concentration (IC50) is 6.26 µM under setting [1]; 6.52 µM under setting [2]; 5.65 µM under setting [3]; 5.77 µM under setting [4]; 7.19 µM under setting [5]. In addition, the viability, T/C reads like this: under setting [6], 102%; under setting [7], 94.5%; under setting [8], 94.1%; under setting [9], 94.3%; under setting [10], 95.2%; under setting [11], 19.1%. The viability, T/C under setting [12] is 98.7%; the viability, T/C under setting [13] is 104%; the viability, T/C under setting [14] was 100%; the viability, T/C under setting [15] is 89.5%; the viability, T/C under setting [16] was 92.9%; the viability, T/C under setting [17] was 24.5%. The viability, T/C by setting is: under setting [18], 96.8%; under setting [19], 87%; under setting [20], 107%; under setting [21], 91.1%; under setting [22], 78.5%; under setting [23], 22.2%. In addition, the viability, T/C was 79% under setting [24]; 90.9% under setting [25]; 82.9% under setting [26]; 107% under setting [27]; 75.4% under setting [28]; 26.8% under setting [29]. The viability, T/C is 95% under setting [30]; 86% under setting [31]; 96.2% under setting [32]; 76.2% under setting [33]; 83.3% under setting [34]; 37.7% under setting [35].

Regarding `CC1(C)CCC(CN2CCN(c3ccc(C(=O)NS(=O)(=O)c4ccc(NCC5CCOCC5)c([N+](=O)[O-])c4)c(Oc4cnc5[nH]ccc5c4)c3)CC2)=C(c2ccc(Cl)cc2)C1`, the viability, T/C is 100% and 112% and 101% (compound 0.0316 µM); 105% and 99.6% and 110% (compound 0.1 µM); 94.1% and 105% and 96.2% (compound 0.316 µM); 98.5% and 101% and 95.5% (compound 1 µM); 98.2% (2×) and 102% (compound 3.16 µM); 46.4% and 19.4% and 17.5% (compound 10 µM). The half-maximal inhibitory concentration (IC50) (curve of compound) was 9.24 µM and 6.4 µM and 6.39 µM.

Turning to `COc1ccc([C@@H](O)c2cc(-c3ncnc4cc(N5CCOCC5)ccc34)c(F)cc2Cl)nn1` + Cc1ccccc1N=Nc1ccc(NC(=O)c2ccnn2C)c(C)c1, the IC50 reads like this: under setting [1], 4.59 µM; under setting [2], 2.87 µM; under setting [3], 3.92 µM; under setting [4], 2.55 µM; under setting [5], 1.9 µM. The viability, T/C under setting [6] was 93.9%; the viability, T/C under setting [7] was 93.8%; the viability, T/C under setting [8] was 88.3%; the viability, T/C under setting [9] is 75.7%; the viability, T/C under setting [10] is 61.2%; the viability, T/C under setting [11] was 29%. Besides, the viability, T/C is, setting by setting: under setting [12], 83.3%; under setting [13], 101%; under setting [14], 91.1%; under setting [15], 75%; under setting [16], 48.5%; under setting [17], 28.1%. Besides, the viability, T/C under setting [18] was 87.3%; the viability, T/C under setting [19] is 99.2%; the viability, T/C under setting [20] was 86%; the viability, T/C under setting [21] is 79%; the viability, T/C under setting [22] was 55%; the viability, T/C under setting [23] is 28.5%. Besides, the viability, T/C reads like this: under setting [24], 89.8%; under setting [25], 83.9%; under setting [26], 78%; under setting [27], 68.1%; under setting [28], 45.2%; under setting [29], 23.8%. Besides, the viability, T/C was 75.5% under setting [30]; 93.6% under setting [31]; 80.8% under setting [32]; 57.9% under setting [33]; 42.5% under setting [34]; 15.6% under setting [35].
